Reference: US20260000692A1, “Substituted N-(Pyridin-2-yl)Acetamide Derivatives as CDK12/13 Inhibitors” (Aurigene Oncology Limited, priority 2022, published 2026)

Target: CDK12 (Homo sapiens, UniProt Q9NYV4)
Assay: Biochemical assay for CDK12 (LANCE TR-FRET, IC50 determination)
Settings: for IC50: CDK12, IC50 class, read-out: IC50 μM (in range); for inhibition at 10 µM: compound at 10 μM, read-out: CDK12 % Inhibition @ 10 μM
Method: Biochemical Assay for CDK12 (IC50 Determination):
The inhibitory activity of the test compounds was assessed by the LANCE TR-FRET assay, which detects the ATP-dependent phosphorylation of an ULight-4E-BP1 (Thr37/Thr46) substrate peptide (100 nM) by CDK12 (30 nM). Briefly, the enzyme reaction was run in reaction buffer (25 mM HEPES (pH 7.5), 10 mM MgCl2, […], 0.01% Triton x, 1 mM DTT). The assay was performed in 384-well plate format. The end concentration of the ATP substrate was […], and that of the ULight-4E-BP1 (Thr37/Thr46) substrate peptide was 100 nM, and of CDK12 was 30 nM. Pre-incubation of the compound and enzyme was performed for 60 min at room temperature. After 60 min incubation at room temperature, the reaction was terminated by the addition of 40 mM EDTA and 0.5 nM Eu-labeled anti-phospho-eIF4E-binding protein (Thr37/46) antibody in LANCE detection buffer. Time-resolved fluorescence (excitation, 320 nm; emission donor, 615 nm; emission acceptor, 665 nm) was monitored by using 2030 multilabel reader Victor5 (PerkinElmer). The Fluorescence emission of the samples were measured and the ratio was plotted against the compound concentration to generate the dose response curve. The IC50 values were derived by fitting a sigmoidal dose-response curve to a plot of assay readout over inhibitor concentration. All fits were computed with the program Prism 5.03 (Graph Pad Software, San Diego, CA). The % inhibition values at […] were calculated with respect to enzyme activity.

Sequence of CDK12 (Q9NYV4 whole entry): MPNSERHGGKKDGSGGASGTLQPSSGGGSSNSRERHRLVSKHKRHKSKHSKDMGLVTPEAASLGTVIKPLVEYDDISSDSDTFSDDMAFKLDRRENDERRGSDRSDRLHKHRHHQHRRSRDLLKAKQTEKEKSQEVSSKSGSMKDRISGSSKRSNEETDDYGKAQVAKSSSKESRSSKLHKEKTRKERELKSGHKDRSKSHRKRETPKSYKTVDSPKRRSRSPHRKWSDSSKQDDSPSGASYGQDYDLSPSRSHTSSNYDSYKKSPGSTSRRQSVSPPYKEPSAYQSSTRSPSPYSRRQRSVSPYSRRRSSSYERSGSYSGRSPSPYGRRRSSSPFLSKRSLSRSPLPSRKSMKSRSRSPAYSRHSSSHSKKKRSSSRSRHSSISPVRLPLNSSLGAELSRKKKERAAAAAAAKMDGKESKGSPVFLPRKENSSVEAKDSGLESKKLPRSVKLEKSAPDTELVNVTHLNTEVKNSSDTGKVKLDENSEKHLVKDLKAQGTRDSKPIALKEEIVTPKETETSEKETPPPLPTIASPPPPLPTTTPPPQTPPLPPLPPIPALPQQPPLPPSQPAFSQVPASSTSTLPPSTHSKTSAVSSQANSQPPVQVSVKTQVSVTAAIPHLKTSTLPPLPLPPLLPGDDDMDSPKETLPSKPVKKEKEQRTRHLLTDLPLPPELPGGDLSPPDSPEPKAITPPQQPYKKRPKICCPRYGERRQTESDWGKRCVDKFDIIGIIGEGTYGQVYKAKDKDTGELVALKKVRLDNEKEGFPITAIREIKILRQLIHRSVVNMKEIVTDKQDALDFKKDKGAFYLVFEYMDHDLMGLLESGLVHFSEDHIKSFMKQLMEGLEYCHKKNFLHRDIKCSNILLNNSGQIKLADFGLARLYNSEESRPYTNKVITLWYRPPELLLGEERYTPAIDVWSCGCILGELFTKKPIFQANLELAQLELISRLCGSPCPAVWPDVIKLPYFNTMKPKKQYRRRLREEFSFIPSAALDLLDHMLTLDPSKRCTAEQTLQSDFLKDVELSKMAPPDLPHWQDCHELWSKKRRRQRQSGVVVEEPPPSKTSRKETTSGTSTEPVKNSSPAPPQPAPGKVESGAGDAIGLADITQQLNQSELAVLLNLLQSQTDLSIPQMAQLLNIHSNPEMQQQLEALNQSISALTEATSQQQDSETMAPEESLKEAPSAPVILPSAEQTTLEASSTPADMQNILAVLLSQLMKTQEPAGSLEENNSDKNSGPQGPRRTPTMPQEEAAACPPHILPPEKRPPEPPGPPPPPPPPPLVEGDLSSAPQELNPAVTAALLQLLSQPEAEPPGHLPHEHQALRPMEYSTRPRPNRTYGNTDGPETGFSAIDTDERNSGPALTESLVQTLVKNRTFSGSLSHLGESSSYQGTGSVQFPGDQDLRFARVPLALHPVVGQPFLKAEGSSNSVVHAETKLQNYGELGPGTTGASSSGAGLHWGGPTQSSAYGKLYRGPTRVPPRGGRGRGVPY
Sequence of CDK12 (O75909 whole entry partner): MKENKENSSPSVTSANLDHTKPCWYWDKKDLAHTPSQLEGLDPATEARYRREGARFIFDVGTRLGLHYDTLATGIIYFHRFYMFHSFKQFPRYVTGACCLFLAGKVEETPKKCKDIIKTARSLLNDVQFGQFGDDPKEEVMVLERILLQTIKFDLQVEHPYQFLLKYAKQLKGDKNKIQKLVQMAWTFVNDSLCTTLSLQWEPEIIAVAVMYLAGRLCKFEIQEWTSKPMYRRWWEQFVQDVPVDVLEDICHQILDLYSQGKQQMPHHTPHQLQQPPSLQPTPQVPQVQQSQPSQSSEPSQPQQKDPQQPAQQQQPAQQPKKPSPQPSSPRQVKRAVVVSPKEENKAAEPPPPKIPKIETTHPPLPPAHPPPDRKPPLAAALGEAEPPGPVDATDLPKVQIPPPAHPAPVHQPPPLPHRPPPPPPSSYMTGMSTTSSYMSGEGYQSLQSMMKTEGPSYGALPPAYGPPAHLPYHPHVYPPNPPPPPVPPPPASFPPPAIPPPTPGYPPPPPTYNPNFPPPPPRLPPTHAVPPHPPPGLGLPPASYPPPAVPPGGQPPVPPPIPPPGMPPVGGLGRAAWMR

| Structure (SMILES) | IC50 [µM] | inhibition at 10 µM [%] | inhibition at 2 µM (compound at 2 μM (stated in the cell, not the 10 μM of the column head)) [%] |
| --- | --- | --- | --- |
| N#CN1CCCC(c2ccc(CC(=O)Nc3cc(O[C@@H]4CCOC4)c(Cl)cn3)cn2)C1 (single isomer, unassigned) [Compound 93] | 0.01 to 0.1 | 73 |  |
| N#CN1CCCC(c2ccc(CC(=O)Nc3cc(O[C@@H]4CCOC4)c(Cl)cn3)cn2)C1 (stereo partly drawn) [Compound 92, N-(5-chloro-4-(((R)-tetrahydrofuran-3-yl)oxy)pyridin-2-yl)-2-(6-(1-cyanopiperidin-3-yl)pyridin-3-yl)acetamide] | 0.01 to 0.1 | 90 |  |
| COc1cc(CC(=O)Nc2cc(O[C@@H]3CCOC3)c(Cl)cn2)cnc1C1=CCN(C#N)CC1 [Compound 122, (R)-N-(5-chloro-4-((tetrahydrofuran-3-yl)oxy)pyridin-2-yl)-2-(1′-cyano-3-methoxy-1′,2′,3′,6′-tetrahydro-[2,4′-bipyridin]-5-yl)acetamide] | < 0.01 | 90 |  |
| COc1cc(NC(=O)Cc2ccc(-c3nc(C#N)ccc3C)nc2)ncc1Cl [Compound 160, N-(5-chloro-4-methoxypyridin-2-yl)-2-(6′-cyano-3′-methyl-[2,2′-bipyridin]-5-yl)acetamide] | > 0.1 | 76 |  |
| COc1cc(NC(=O)Cc2ccc(C3=CCCN(C#N)C3)nc2)ncc1Cl [Compound 34, N-(5-chloro-4-methoxypyridin-2-yl)-2-(1′-cyano-1′,2′,5′,6′-tetrahydro-[2,3′-bipyridin]-5-yl)acetamide] | < 0.01 | 91 |  |
| N#CN1CCC=C(c2ccc(CC(=O)Nc3cc(OC4CCCOC4)c(Cl)cn3)cn2)C1 (single isomer, unassigned) [Compound 44, N-(5-chloro-4-((tetrahydro-2H-pyran-3-yl)oxy)pyridin-2-yl)-2-(1′-cyano-1′,2′,5′,6′-tetrahydro-[2,3′-bipyridin]-5-yl)acetamide] | < 0.01 | 89 |  |
| CN1CCN(c2cc(NC(=O)Cc3ccc(C4=CCN(C#N)CC4)nc3)ncc2Cl)CC1 [Compound 9, N-(5-chloro-4-(4-methylpiperazin-1-yl)pyridin-2-yl)-2-(1′-cyano-1′,2′,3′,6′-tetrahydro-[2,4′-bipyridin]-5-yl)acetamide] |  | 64 |  |
| COc1cc(NC(=O)Cc2ccc(-c3cccc(C#N)n3)cc2)ncc1Cl [Compound 152, N-(5-chloro-4-methoxypyridin-2-yl)-2-(4-(6-cyanopyridin-2-yl)phenyl)acetamide] | > 0.1 |  |  |
| N#Cc1cccc(-c2ccc(CC(=O)Nc3cc(O[C@@H]4CCOC4)c(Cl)cn3)cn2)n1 [Compound 154, (R)-N-(5-chloro-4-((tetrahydrofuran-3-yl)oxy)pyridin-2-yl)-2-(6′-cyano-[2,2′-bipyridin]-5-yl)acetamide] | < 0.01 | 77 |  |
| COc1cc(CC(=O)Nc2cc(O[C@@H]3CCOC3)c(Cl)cn2)cnc1C1CCN(C#N)CC1 [Compound 123, (R)-N-(5-chloro-4-((tetrahydrofuran-3-yl)oxy)pyridin-2-yl)-2-(6-(1-cyanopiperidin-4-yl)-5-methoxypyridin-3-yl)acetamide] | < 0.01 | 86 |  |
| COc1cc(NC(=O)Cc2ccc(C3=CCN(C#N)CC3)nc2)ncc1Cl [Compound 8, N-(5-chloro-4-methoxypyridin-2-yl)-2-(1′-cyano-1′,2′,3′,6′-tetrahydro-[2,4′-bipyridin]-5-yl)acetamide] | < 0.01 | 82 |  |
| COc1cc(NC(=O)Cc2cnc(C3CCN(C#N)CC3)c(OC)c2)ncc1Cl [Compound 121, N-(5-chloro-4-methoxypyridin-2-yl)-2-(6-(1-cyanopiperidin-4-yl)-5-methoxypyridin-3-yl)acetamide] | < 0.01 | 82 |  |
| COc1cc(NC(=O)Cc2cnc(C3=CCCN(C#N)C3)c(OC)c2)ncc1Cl [Compound 117, N-(5-chloro-4-methoxypyridin-2-yl)-2-(1′-cyano-3-methoxy-1′,2′,5′,6′-tetrahydro-[2,3′-bipyridin]-5-yl)acetamide] | < 0.01 | 88 |  |
| COc1cc(NC(=O)Cc2ccc(-c3ccc(C)c(C#N)n3)nc2)ncc1Cl [Compound 158, N-(5-chloro-4-methoxypyridin-2-yl)-2-(6′-cyano-5′-methyl-[2,2′-bipyridin]-5-yl)acetamide] | > 0.1 |  | 70 |
| CNC(=O)C(C)Oc1cc(NC(=O)Cc2ccc(C3=CCN(C#N)CC3)nc2)ncc1Cl (single isomer, unassigned) [Compound 3, 2-((5-chloro-2-(2-(1′-cyano-1′,2′,3′,6′-tetrahydro-[2,4′-bipyridin]-5-yl)acetamido)pyridin-4-yl)oxy)-N-methylpropanamide] | < 0.01 | 84 |  |
| COc1cc(NC(=O)Cc2ccc(-c3cc(N4C[C@H]5CC[C@@H](C4)O5)cc(C#N)n3)nc2)ncc1Cl [Compound 195, 2-(4′-((1R,5S)-8-oxa-3-azabicyclo[3.2.1]octan-3-yl)-6′-cyano-[2,2′-bipyridin]-5-yl)-N-(5-chloro-4-methoxypyridin-2-yl)acetamide] | 0.01 to 0.1 | 84 |  |
| N#CN1CC=C(c2ccc(CC(=O)Nc3cc(O[C@H]4CCOC4)c(Cl)cn3)cn2)CC1 [Compound 27, (S)-N-(5-chloro-4-((tetrahydrofuran-3-yl)oxy)pyridin-2-yl)-2-(1′-cyano-1′,2′,3′,6′-tetrahydro-[2,4′-bipyridin]-5-yl)acetamide] | < 0.01 | 93 |  |
| CSc1ccc(NC(=O)Cc2ccc(C3=CCCN(C#N)C3)nc2)nc1 [Compound 107, 2-(1′-cyano-1′,2′,5′,6′-tetrahydro-[2,3′-bipyridin]-5-yl)-N-(5-(methylthio)pyridin-2-yl)acetamide] | 0.01 to 0.1 | 95 |  |
| COc1cc(NC(=O)Cc2ccc(C3CCCN(C#N)C3)nc2)ncc1Cl (single isomer, unassigned) [Compound 79, N-(5-chloro-4-methoxypyridin-2-yl)-2-(6-(1-cyanopiperidin-3-yl)pyridin-3-yl)acetamide] | > 0.1 | 79 |  |
| CNC(=O)[C@H](C)Oc1cc(NC(=O)Cc2ccc(-c3ccc(C#N)nc3)nc2)ncc1Cl [Compound 147, (S)-2-((5-chloro-2-(2-(6′-cyano-[2,3′-bipyridin]-5-yl)acetamido)pyridin-4-yl)oxy)-N-methylpropanamide] | 0.01 to 0.1 | 89 |  |
| COc1cc(NC(=O)C(C)(C)c2ccc(C3=CCCN(C#N)C3)nc2)ncc1Cl [Compound 110, N-(5-chloro-4-methoxypyridin-2-yl)-2-(1′-cyano-1′,2′,5′,6′-tetrahydro-[2,3′-bipyridin]-5-yl)-2-methylpropanamide] |  | 57 |  |
| N#CN1CCC=C(c2ccc(CC(=O)Nc3cnc(Cl)cn3)cn2)C1 [Compound 108, N-(5-chloropyrazin-2-yl)-2-(1′-cyano-1′,2′,5′,6′-tetrahydro-[2,3′-bipyridin]-5-yl)acetamide] | 0.01 to 0.1 | 85 |  |
| COc1cc(NC(=O)Cc2ccc(-c3cc(N4CC5CC4CN5C)cc(C#N)n3)nc2)ncc1Cl (centres unmarked) [Compound 181, N-(5-chloro-4-methoxypyridin-2-yl)-2-(6′-cyano-4′-(5-methyl-2,5-diazabicyclo[2.2.1]heptan-2-yl)-[2,2′-bipyridin]-5-yl)acetamide] | 0.01 to 0.1 | 92 |  |
| COc1cc(NC(=O)Cc2ccc(-c3ccc(C#N)cc3)nc2)ncc1Cl [Compound 188, N-(5-chloro-4-methoxypyridin-2-yl)-2-(6-(4-cyanophenyl)pyridin-3-yl)acetamide] | > 0.1 | 65 |  |
| COc1cc(NC(=O)Cc2ccc(C3CCN(C#N)CC3)nc2)ncc1C1CC1 [Compound 124, 2-(6-(1-cyanopiperidin-4-yl)pyridin-3-yl)-N-(5-cyclopropyl-4-methoxypyridin-2-yl)acetamide] | > 0.1 | 86 |  |
| COc1cc(NC(=O)Cc2ccc(-c3cnc(C#N)nc3)nc2)ncc1Cl [Compound 141, N-(5-chloro-4-methoxypyridin-2-yl)-2-(6-(2-cyanopyrimidin-5-yl)pyridin-3-yl)acetamide] | 0.01 to 0.1 | 92 |  |
| COCC(C)Oc1cc(NC(=O)Cc2ccc(C3=CCN(C#N)CC3)nc2)ncc1Cl (centres unmarked) [Compound 14, N-(5-chloro-4-((1-methoxypropan-2-yl)oxy)pyridin-2-yl)-2-(1′-cyano-1′,2′,3′,6′-tetrahydro-[2,4′-bipyridin]-5-yl)acetamide] | < 0.01 | 96 |  |
| CN1CCC(Oc2cc(NC(=O)Cc3ccc(C4=CCCN(C#N)C4)nc3)ncc2Cl)CC1 [Compound 37, N-(5-chloro-4-((1-methylpiperidin-4-yl)oxy)pyridin-2-yl)-2-(1′-cyano-1′,2′,5′,6′-tetrahydro-[2,3′-bipyridin]-5-yl)acetamide] | < 0.01 | 94 |  |
